Data published in US20040224876A1, “Combination therapy for the treatment of immunoinflammatory disorders” (priority 2003, published 2004).
Where “and” joins values, the source holds several entries; their conditions need not be identical. Equal values may be shown once. Read-outs that look alike come from different tables or passages of the source.

How the values were obtained:
[1] = system: IL-2 secretion, human white blood cells; assay: IL-2 secretion by PMA/ionomycin-stimulated human white blood cells (ELISA)
Method: (§1) Various concentrations of each test compound were added at the time of stimulation. […] After the plate was washed with 0.1% Tween 20/PBS, an HRP-luminescent substrate was added to each well and light intensity measured using a LJL Analyst plate luminometer.
(§2) The percent inhibition (% I) for each well was calculated using the following formula:
(§3) The average untreated well value (avg. untreated wells) is the arithmetic mean of 40 wells from the same assay plate treated with vehicle alone.

[2] = system: TNFα secretion, human white blood cells; assay: TNFα secretion, lipopolysaccharide stimulation, human white blood cells (ELISA)
Method: as §1, §2, §3

[3] = cited from earlier work
[4] = system: TNFα secretion, human white blood cells; details: cyclosporine 0 μM
Method: Drugs were added to the indicated concentration. […] The plate was then washed again with 0.1% Tween 20/PBS. An HRP-luminescent substrate was added to each well, and the light intensity of each well was measured using a plate luminometer.
as §2, §3

[5] = read-out: % Inhibition of IL-2 secretion
[6] = read-out: % Inhibition of IL-2 secretion, cyclosporine A 0.00 μM, ethopropazine […]
[7] = read-out: % Inhibition of TNFα secretion, cyclosporine A 0.00 μM, ethopropazine […]
[8] = read-out: % Inhibition of TNFα secretion, cyclosporine A 0 μM, chlorpromazine […]

CN(C)C(=O)C(CCN1CCC(O)(c2ccc(Cl)cc2)CC1)(c1ccccc1)c1ccccc1 [Loperamide]
inhibition at 17 µM [1, 5]: 4.2% | inhibition at 35 µM [1, 5]: 42.4% | inhibition at […] [1, 5]: -14.9% and -15.5% and -10.5% and -15.4% (2×) and -13.5% | inhibition at 35 µM ([2]; read-out: % Inhibition of TNFα secretion): 87.3%

CO[C@H]1C[C@@H]2CC[C@@H](C)[C@@](O)(O2)C(=O)C(=O)N2CCCC[C@H]2C(=O)O[C@H]([C@H](C)C[C@@H]2CC[C@@H](O)[C@H](OC)C2)CC(=O)[C@H](C)/C=C(\C)[C@@H](O)[C@@H](OC)C(=O)[C@H](C)C[C@H](C)/C=C/C=C/C=C/1C [Rapamycin]
absorption after oral administration [3]: absorbed rapidly and completely

C=CC[C@@H]1/C=C(\C)C[C@H](C)C[C@H](OC)[C@H]2O[C@@](O)(C(=O)C(=O)N3CCCC[C@H]3C(=O)O[C@H](/C(C)=C/[C@@H]3CC[C@@H](O)[C@H](OC)C3)[C@H](C)[C@@H](O)CC1=O)[C@H](C)C[C@@H]2OC [Tacrolimus]
inhibition at 0.0004 µM ([1]; PBMC, read-out: % Inhibition IL-2 PBMC PI, tacrolimus 0.0004 μM, fluvoxamine μM: 0,0.16,0.31,0.62,1.2,2.5,5,10,20): 0.73% | inhibition at 0.0008 µM ([1]; PBMC, read-out: % Inhibition IL-2 PBMC PI, tacrolimus 0.0008 μM, fluvoxamine μM: 0,0.16,0.31,0.62,1.2,2.5,5,10,20): -4.4% | inhibition at 0.05 µM ([1]; PBMC, read-out: % Inhibition IL-2 PBMC PI, tacrolimus 0.05 μM, fluvoxamine μM: 0,0.16,0.31,0.62,1.2,2.5,5,10,20): 87% | inhibition at 0.05 µM ([1]; read-out: maximal inhibition of IL-2 production, tacrolimus 0.05 μM alone): 87%

CCOC(=O)N1CCC(=C2c3ccc(Cl)cc3CCc3cccnc32)CC1 [Loratadine]
Reduction of TNFα secretion ([4]; loratadine 0.2 μM): 0 | Reduction of TNFα secretion ([4]; loratadine 13 μM): 30.1 | Reduction of TNFα secretion ([4]; loratadine 26 μM): 40.7

CCN(CC)C(C)CN1c2ccccc2Sc2ccccc21 (centres unmarked) [Ethopropazine]
inhibition at 17 µM [1, 6]: 21% | inhibition at 35 µM [1, 6]: 52.3% | inhibition at 17 µM [2, 7]: 24.3% | inhibition at 35 µM [2, 7]: 69.6%

CN(C)CCCN1c2ccccc2Sc2ccc(Cl)cc21 [Chlorpromazine]
inhibition at 0.6 µM ([1]; read-out: % Inhibition of IL-2 secretion, cyclosporine A 0 μM, chlorpromazine 0.6 μM): -13.3% | inhibition at 5 µM ([1]; read-out: % Inhibition of IL-2 secretion, cyclosporine A 0 μM, chlorpromazine 5.0 μM): -13.7% | inhibition at 20 µM ([1]; read-out: % Inhibition of IL-2 secretion, cyclosporine A 0 μM, chlorpromazine 20.0 μM): 24.7% | inhibition at 40 µM ([1]; read-out: % Inhibition of IL-2 secretion, cyclosporine A 0 μM, chlorpromazine 40.0 μM): 80.7% | inhibition at 80 µM ([1]; read-out: % Inhibition of IL-2 secretion, cyclosporine A 0 μM, chlorpromazine 80.0 μM): 94.7% | inhibition at 17 µM [2, 8]: 46.2% | inhibition at 35 µM [2, 8]: 45.5%
